# In patent US20230172849A1, “INHALED STATINS FOR TREATMENT OF VIRAL RESPIRATORY DISEASES” (priority 2020, published 2023):
# “Also recorded” adds a separate entry of the source. Like-named read-outs stand apart in the source and are kept apart here.
# Key:
# [1] = target: SARS-CoV-2 Spike S1 (RBD) (Severe acute respiratory syndrome coronavirus 2, UniProt P0DTC2); test: biochemical; type: binding
# [2] = system: SARS-CoV-2; type: cell-based
# [3] = system: SARS-CoV-2; test: SARS-CoV-2 viral load by RT-qPCR in Calu-3 supernatant; type: cell-based
# [4] = system: SARS-CoV-2-induced cytokine and chemokine production; type: cell-based; conditions: Calu-3 cells; Cases A-C
# [5] = system: SARS-CoV-2; test: hamster model of SARS-CoV-2 infection, intranasally inhaled treatment; type: in vivo
# [6] = system: SARS-CoV-2; test: combination therapy, viral load by RT-PCR (ORF1ab gene) in Calu-3 cells; type: cell-based; design: key to enhanced decrease of viral load, combination vs two single agents: Each combination that showed an enhanced decrease of viral load as compared with the two single agents is denoted by “E”; Combinations that showed a slight trend towards an enhanced decrease of viral load as compared with the two single agents is denoted by “(e)”; —
# [7] = system: Calu-3 cells; conditions: Calu-3 cells or Vero cells
compound,measurement,setting,value
"O=C([O-])C[C@H](O)C[C@H](O)/C=C/c1c(C2CC2)nc2ccccc2c1-c1ccc(F)cc1.O=C([O-])C[C@H](O)C[C@H](O)/C=C/c1c(C2CC2)nc2ccccc2c1-c1ccc(F)cc1.[Ca+2] [INS103, Pitavastatin Calcium]",binding to SARS-COV-2 S-protein (in words),[1]; MST binding assay,bind with SARS-COV-2 S-protein at nanomolar (nM) concentrations
same,Kd,"[1]; Table 1, MST, 25 nM labelled SARS-CoV-2 S1, read-out: Affinity",678 to 1000 nM
same,Remarks,"[1]; Table 1, binding to SARS-CoV-2 S1",Good binding
same,S/N,"[1]; Table 1, signal to noise ratio of MST binding",14.4-17.3
same,Kd,"[1]; Table 2, read-out: Affinity (nM) of binding to SARS-COV2 Spike protein",678 to 1000 nM
same,SARS-CoV-2-induced loss of cell viability in Calu-3 cells (overall conclusion),[2]; Calu-3 cells,inhibited SARS-CoV-2-induced loss of cell viability
same,protection against virus-induced loss of cell viability,"[2]; Case A: compound added 1 h after infection, 72 h contact",dose-dependent protection
same,Average (percent cell viability),"[2]; Case A: compound added 1 h after infection, 72 h contact, 0.2 uM",4.83%
same,Average (percent cell viability),"[2]; Case A: compound added 1 h after infection, 72 h contact, 1 uM",9.66%
same,Average (percent cell viability),"[2]; Case A: compound added 1 h after infection, 72 h contact, 5 uM",17.37%
same,Average (percent cell viability),"[2]; Case B: compound added 24 h after infection, 48 h contact, 0.2 uM",0.5243%
same,Average (percent cell viability),"[2]; Case B: compound added 24 h after infection, 48 h contact, 1 uM",1.724%
same,Average (percent cell viability),"[2]; Case B: compound added 24 h after infection, 48 h contact, 5 uM",−3.025%
same,Average (percent cell viability),"[2]; Case C: compound added 48 h after infection, 24 h contact, 0.2 uM",1.847%
same,Average (percent cell viability),"[2]; Case C: compound added 48 h after infection, 24 h contact, 1 uM",−1.192%
same,Average (percent cell viability),"[2]; Case C: compound added 48 h after infection, 24 h contact, 5 uM",−1.208%
same,Average (percent cell viability),"[2]; Case D: pre-treated 6 h, then infected 72 h, 0.2 uM",34.83%
same,Average (percent cell viability),"[2]; Case D: pre-treated 6 h, then infected 72 h, 1 uM",32.21%
same,Average (percent cell viability),"[2]; Case D: pre-treated 6 h, then infected 72 h, 5 uM",28.3%
same,protection against virus-induced loss of cell viability,"[2]; Case D: pre-treated 6 hours, then infected 72 hours",dose-independent protection
same,protection against virus-induced loss of cell viability,"[2]; Case D: pre-treated 6 hours, then infected 72 hours, listed as INS-103",inhibit SARS-CoV-2-induced loss of cell viability
same,Average (percent cell viability),"[2]; Case E: pre-treated 24 h, then infected 72 h, 0.2 uM",−3.00%
same,Average (percent cell viability),"[2]; Case E: pre-treated 24 h, then infected 72 h, 1.0 uM",−0.20%
same,Average (percent cell viability),"[2]; Case E: pre-treated 24 h, then infected 72 h, 5.0 uM",46.71%
same,protection against virus-induced loss of cell viability,"[2]; Case E: pre-treated 24 hours, then infected 72 hours, high and medium doses of INS102, high dose of INS103",dose-dependent protection
same,anti-viral protection (cell viability),"[2]; Case F: 1 hour, then virus 72 hours, high dose of INS102, all doses of INS103",dose-dependent anti-viral protection
same,Average (percent cell viability),"[2]; Case F: compound 1 h before infection (coinc 1 h), then virus 72 h, 0.2 uM",9.881%
same,Average (percent cell viability),"[2]; Case F: compound 1 h before infection (coinc 1 h), then virus 72 h, 1 uM",15.82%
same,Average (percent cell viability),"[2]; Case F: compound 1 h before infection (coinc 1 h), then virus 72 h, 5 uM",19.96%
same,SARS-CoV-2 viral load,"[3]; Cases A-C, 5, 1, 0.2 μM",dose-dependently reduced viral load
same,SARS-CoV-2 viral load,[3]; high dose 5 uM,reduced SARS-CoV-2 viral load
same,SARS-CoV-2-induced cytokine and chemokine production,[4],inhibited
same,viral titers in throat swabs,"[5]; 3 mg/kg i.n., Day 1",reduced viral titers
same,viral titer in the nasal swabs and tracheas,"[5]; 3 mg/kg i.n., Day 3 post-infection",reduction of viral titer
same,viral titer in lung samples,"[5]; 3 mg/kg i.n., Day 3 post-infection, R4 samples",significant decrease in viral titer
same,percentage of affected lung (inflammation),"[5]; 3 mg/kg i.n., day 6, virus-infected controls ˜50%",~30%
same,viral titers in throat swabs (reduction trend),"[5]; 3 mg/kg i.n., days 2 or 3",not observed
same,viral titers from the nasal swabs,"[5]; 3 mg/kg i.n., vs DPBS or control vehicle (DV)",trend of reduced viral titers
same,lung inflammation (histopathology),"[5]; 3 mg/kg i.n., vs controls",reduction in acute ling inflammation; also recorded: mild/moderate reduction in lung inflammation
same,weight loss of infected hamsters,"[5]; pitavastatin 3 mg/kg i.n., D-2 to 5, statistical significance at day 4",less weight loss
same,"decrease in viral load, combination with remdesivir or dexamethasone vs monotherapies","[6]; FIGS. 30, 31, statin and SARS-CoV-2 (MOI 0.01) mixed 1 hour at room temperature, 24 hours post infection",enhanced
same,"enhanced decrease of viral load, combination vs two single agents",[6]; statin 0.2 μM + Dex 0.1 μM,—
same,"enhanced decrease of viral load, combination vs two single agents",[6]; statin 0.2 μM + Dex 1 μM,(e)
same,"enhanced decrease of viral load, combination vs two single agents",[6]; statin 0.2 μM + Dex 10 μM,—
same,"enhanced decrease of viral load, combination vs two single agents",[6]; statin 0.2 μM + Remde 1,(e)
same,"enhanced decrease of viral load, combination vs two single agents",[6]; statin 0.2 μM + Remde 10,(e)
same,"enhanced decrease of viral load, combination vs two single agents",[6]; statin 0.2 μM + Remde 100,(e)
same,"enhanced decrease of viral load, combination vs two single agents",[6]; statin 1 μM + Dex 0.1 μM,—
same,"enhanced decrease of viral load, combination vs two single agents",[6]; statin 1 μM + Dex 1 μM,enhancement in the decrease of viral load and E
same,"enhanced decrease of viral load, combination vs two single agents",[6]; statin 1 μM + Dex 10 μM,—
same,"enhanced decrease of viral load, combination vs two single agents",[6]; statin 1 μM + Remde 1,—
same,"enhanced decrease of viral load, combination vs two single agents",[6]; statin 1 μM + Remde 10,—
same,"enhanced decrease of viral load, combination vs two single agents",[6]; statin 1 μM + Remde 100,—
same,"enhanced decrease of viral load, combination vs two single agents",[6]; statin 5 μM + Dex 0.1 μM,E
same,"enhanced decrease of viral load, combination vs two single agents",[6]; statin 5 μM + Dex 1 μM,—
same,"enhanced decrease of viral load, combination vs two single agents",[6]; statin 5 μM + Dex 10 μM,—
same,"enhanced decrease of viral load, combination vs two single agents",[6]; statin 5 μM + Remde 1,—
same,"enhanced decrease of viral load, combination vs two single agents",[6]; statin 5 μM + Remde 10,—
same,"enhanced decrease of viral load, combination vs two single agents",[6]; statin 5 μM + Remde 100,—
same,cytotoxicity,[7],not cytotoxic
